The text below walks through data of paper PMC12864978, “Covalent modification of a glutamic acid inspired by HaloTag technology” (Nature Communications, 2026).

Series [1] has as its target T1, PDEδ in the presence of Arl2•GppNHp (Homo sapiens, UniProt O43924).
T1 construct: His tag; made in house; host or cells: Escherichia coli Rosetta (BL21DE3), pET plasmids
In words: Competitive fluorescence polarisation assay in the presence of Arl2•GppNHp. Format: binding. An excerpt:
(§1) Data are presented as mean ± s.e.m.

In another series the target is T2, PDEδ in Jurkat cells (Homo sapiens, UniProt O43924).
T2 construct: host or cells: Jurkat
Nature of the series: CETSA in intact cells (in-cell CETSA). It counts as cell-based. The following applies: 15 min at 37 °C. The procedure: Cells were collected and resuspended in cold PBS and further washed thrice in cold PBS. […] Afterwards, NP40 alternative was added to a final concentration of 0.4% (v/v), and cells were lysed by five consecutive freeze/thaw cycles. […] Supernatants were transferred to new tubes, and equal volumes of each sample were loaded on an SDS-PAGE gel and subjected to immunoblot analysis.

Another series deals with BxPC-3 cells. In words: Real-time cell analysis (Incucyte) of proliferation. It counts as cell-based, human. As to conditions: Homo sapiens, 72 h, read-out: cellular IC50. On the procedure: (§2) Real-time cell analysis (RTCA) was conducted using an Incucyte S3 live-cell analysis system (Sartorius AG, Germany). […] Following attachment overnight, the medium was replaced with fresh medium containing test compounds, with all conditions adjusted to contain 0.5% DMSO. […] Phase-contrast images (2 images per well) were automatically captured at 2-h intervals until control wells (DMSO-treated) reached full confluency. Cell growth was quantified using the instrument’s integrated Basic Analyser module by applying a confluence mask to calculate the percentage of phase area confluence. […] Dose-response curves were generated and fitted via four-parameter variable slope nonlinear regression to determine cellular IC₅₀ values.

A further series has as its system MIA PaCa-2 cells. Described as above. It counts as cell-based, human. The procedure: as §2
Another series has as its system NCI-H358 cells. The series is described as above. Format: cell-based, human. The following applies: Homo sapiens, NCI-H358, 72 h, NCI-H358; 72 h; read-out: cellular IC50. On the procedure:
as §2

In the next series the test system is PA-TU-8902 cells. Described as above. Format: cell-based, human. The procedure: as §2
A further series concerns SW480 cells. Described as above. Format: cell-based, human. The following applies: Homo sapiens, 72 h, read-out: cellular IC50. On the procedure: as §2
In series [2] the test system is panel of human cell lines. In words: Cytotoxicity screening in a panel of human cell lines. Format: cell-based. The following applies: concentrations up to 25 µM. On the procedure:
Real-time cell analysis (RTCA) was conducted using an Incucyte S3 live-cell analysis system (Sartorius AG, Germany). Adherent cell lines were seeded at 5 × 10³ cells per well in 96-well plates containing 100 µl of culture medium and incubated overnight at 37 °C with 5% CO₂. Following attachment overnight, the medium was replaced with fresh medium containing test compounds, with all conditions adjusted to contain 0.5% DMSO. […] Phase-contrast images (2 images per well) were automatically captured at 2-h intervals until control wells (DMSO-treated) reached full confluency. Cell growth was quantified using the instrument’s integrated Basic Analyser module by applying a confluence mask to calculate the percentage of phase area confluence. For dose-response assessment, confluence values at 72 h post-treatment were normalised to the DMSO control and analysed using GraphPad Prism 9.5.1 (GraphPad Software, USA). Dose-response curves were generated and fitted via four-parameter variable slope nonlinear regression to determine cellular IC₅₀ values.
representative of biological replicates n = 3.
comet images for each condition were shown.
time live-cell imaging by Incucyte.
Source data are provided as […]

Another series is described as follows: Mouse plasma stability. It counts as in vitro ADME. As to conditions: 50% mouse plasma in PBS, within an hour. An excerpt:
plotted as mean ± standard deviation, representative of 3 technical replicates ( N = 3). Unpaired, two-
Data were plotted as mean ± standard deviation, representative of 3 technical replicates in the presence

In series [3] the target is PDEδ in Jurkat cell lysates (Homo sapiens, UniProt O43924). In words: In-lysate CETSA (immunoblot readout). It counts as binding. Also noted: host or cells: Jurkat.
The target of series [4] is T3, PDEδ (Homo sapiens, UniProt O43924). In words: Covalent modification of PDEδ by MALDI mass spectrometry. It counts as binding. Also noted: His tag; made in house; host or cells: Escherichia coli Rosetta (BL21DE3), pET plasmids. On the procedure: The solution was briefly centrifuged before a sample was taken at the designated time for analysis by MALDI. […] Mass spectra were obtained over the m/z range 15,000–25,000 using a Bruker UltrafleXtreme XIAL DI-TOF/TOF mass spectrometer. Percentages of covalent adduct formation were estimated by the relative intensity of the respective peaks in MALDI spectra.
1. Supplementary Figures and Tables
PDEδ (20 µM) was incubated with compounds (60 µM) in HEPES
Percentages of covalent adduct formation were estimated by the relative intensity of the respective peaks in MALDI spectra. Data are presented as mean ± s.e.m.
Apparent pseudo -first order kobs was estimated by percentages of covalent adduct formation at 2 hours by MALDI. Plot of kobs (h-1) against concentration (µM) was fitted by GraphPad […]
Prism Michaelis-Menten model and separate values for kinact and KI were obtained to calculate apparent […]
PDEδ (20 µM) was incubated with
as §1
HEPES buffer, n = 3 for the rest). One-way ANOVA with matched time-points, with Geisser-

Series [5] addresses T3, PDEδ. In words: Competitive fluorescence polarisation assay (FA probe displacement). Format: binding. More on the design: His tag; made in house; host or cells: Escherichia coli Rosetta (BL21DE3), pET plasmids. For orientation: Polarisation of emitted light reports the rotation of a fluorescent probe.
Series [6] has as its target T3, PDEδ. Nature of the series: Differential scanning fluorimetry (NanoDSF). Format: binding. More on the design: His tag; made in house; host or cells: Escherichia coli Rosetta (BL21DE3), pET plasmids. The procedure:
Afterwards, a sample of the solution was cooled down to room temperature and was loaded onto a capillary, followed by the measurement of fluorescence intensities at 350 nm and 330 nm from 20 °C up to 90 °C (with a rate of increment of 1 °C/min) using the Prometheus Panta device (NanoTemper® Technologies, DE).

Entries after “also recorded” stand apart in the source; their conditions may differ. Bounds are passed on as bounds.

Consider `Cc1ccc(-n2nc3c(=O)n(CCCCS(=O)(=O)N(CCc4cccc(CCBr)c4)CC4CCNCC4)nc(C)c3c2C)cc1` [6a], for which the IC50 – broadly, the point on the concentration scale where inhibition reaches its midpoint – in series [1] (37 °C, PDEδ 40 nM, Arl2•GppNHp 40 nM, FA probe 24 nM) was 10.1 ± 2.6 nM; in [1] (pre-incubated with PDEδ at 37 °C overnight before addition of Arl2•GppNHp) it was 4.8 ± 1.5 nM; in the series with BxPC-3 cells it was 20 ± 1.3 µM; in the series on MIA PaCa-2 cells (Homo sapiens, MIA PaCa-2, 72 h, read-out: cellular IC50), 7 ± 0.4 µM; in the series with NCI-H358 cells, 6.3 ± 3.5 µM; with PA-TU-8902 cells (Homo sapiens, PaTu 8902, PA-TU-8902, 72 h, read-out: cellular IC50) it was 6.8 ± 0.5 µM. The IC50 was 18.6 ± 3 µM with SW480 cells; 6.5 ± 3.5 nM on PDEδ [5] (37 °C overnight); 15.2 ± 8.6 nM on PDEδ [5] (PDEδ 40 nM, FA probe 24 nM, room temperature overnight). Also, the results for the ΔTm at 10 µM (on PDEδ in Jurkat cells; in [3] (15 min at 37 °C); in [3] (2 h at 37 °C)) were 9.3 ± 0.2 °C, 11.8 ± 0.2 °C and 22.1 ± 1 °C, respectively. For the same compound, the “% Growth rate of MIA PaCa-2 cells” value with MIA PaCa-2 cells (25 µM) and in the series on MIA PaCa-2 cells (50 µM) was 15% each time. The “difference in cellular potency vs Deltazinone 1” value with MIA PaCa-2 cells (MIA PaCa-2) is given as over 7 fold. Moreover, the “% Growth rate of PA-TU-8902 cells” value in the series on PA-TU-8902 cells (25 µM) turned out to be 16%; in the series on PA-TU-8902 cells (50 µM) it was 26%. Moreover, the general cytotoxicity result in series [2] is given as “no general toxicity; also recorded: not observed”. Further, the “stability in mouse plasma” value in “Mouse plasma stability” is listed as “stable in mouse plasma”. The KI at PDEδ [4] (Michaelis-Menten fit of kobs) was found to be 464.9 µM. Moreover, at PDEδ [4] (buffers of various pH, 8 h and 24 h), the “covalent modification of PDEδ in different solvents” value is recorded as “pH-independent”. Further, the “% labelling at 24 h” value at PDEδ [4] (representative MALDI spectrum, Fig. 2c) came to 100%. Besides, at PDEδ [6] (2 h incubation), the “ΔTm (NanoDSF)” value came to 13.5 ± 0.2 °C. The ΔTm at 60 µM at PDEδ [6] (PDEδ 20 µM, compound 60 µM, mean ± s.d., Fig. 2e, read-out: melting temperature shift ΔTm (NanoDSF)) was determined as 15.5 ± 1 °C.
